Earlier results as cited in US20030143247A1, “Antiviral compositions and methods for identification and use” (priority 2002, published 2003).

Key:
[1] = test system: HIV viral RNA region within the Rev-binding site; conditions: Zapp et al., Cell 74, 1993
[2] = human, in vivo
[3] = test system: HCV; conditions: various clinical trials

## NC[C@@H]1O[C@H](O[C@H]2[C@@H](O)[C@H](O[C@@H]3[C@@H](O)[C@H](N)C[C@H](N)[C@H]3O[C@H]3O[C@H](CN)[C@@H](O)[C@H](O)[C@H]3N)O[C@@H]2CO)[C@H](N)[C@@H](O)[C@@H]1O [neomycin B]
[1]
  effect on Rev protein binding to HIV viral RNA: blocks Rev protein binding

## NC(=O)c1ncn([C@@H]2O[C@H](CO)[C@@H](O)[C@H]2O)n1 [ribavirin, 1-β-D-ribo-furanosyl-1,2,4-trizole-3-carboxamide]
[2]
  side effect: can cause hemolytic anemia

## IFN-α
[3]; patients treated with IFN-α
  patients who initially responded to the therapy: approximately 40%
[3]; share of the initial responders
  initial responders who relapsed after the treatment ended: 70%
